In US20140086938A1, “METHODS OF INHIBITING TUMOR GROWTH USING TTK ANTAGONISTS” (University Health Network, priority 2007, published 2014):

Experiments:
MCF-7 (Luminal) = test: Cell cycle profile by flow cytometry after siRNA transfection; type: cell-based, human; details: for apoptosis, indicated by increased G2/M and <G1 populations: MCF7 breast cancer cells, flow cytometry, vs siCONTROL; for <G1 / G2/M: MCF-7, 40 nM siRNA, day 3 post-transfection; for <G1: siCONTROL (Neg. Control) 2.11; for G2/M: siCONTROL (Neg. Control) 16.17
Procedure: (§1) To assess the effects of TTK knockdown on the physiology of normal breast and breast cancer cell lines, luminal (MCF7) or basal-like (MDA-MB-435, MDA-MB-468) breast cancer cell lines, a lung cancer cell line (A549) and a normal breast cell line (184A1) each were transfected with 40 nM of TTK-targeting siRNA #2, siRNA #3, the pooled siRNA containing all four of the TTK-targeting siRNAs, or the siCONTROL siRNA. At day 3 post-transfection, the cell cycle profile of the transfected cells was analyzed by flow cytometry to determine the effects of TTK knockdown on cell cycle arrest and cell death. Depletion of TTK in cells transfected with TTK-targeting siRNAs caused significant cell cycle arrest and cell death.

MDA-MB-435 (Basal) = test: as above; type: cell-based, human; details: 40 nM siRNA, day 3 post-transfection; for <G1: siCONTROL (Neg. Control) 0.85; for G2/M: siCONTROL (Neg. Control) 18.77
Procedure: as §1

184A1 (Normal) = test: as above; type: cell-based, human; details: 40 nM siRNA, day 3 post-transfection; for <G1: siCONTROL (Neg. Control) 1.03; for G2/M: siCONTROL (Neg. Control) 10.35
Procedure: as §1

A549 (Lung) = test: as above; type: cell-based, human; details: 40 nM siRNA, day 3 post-transfection; for <G1: siCONTROL (Neg. Control) 0.84; for G2/M: siCONTROL (Neg. Control) 10.57
Procedure: as §1

MDA-MB-468 (Basal) = test: as above; type: cell-based, human; details: 40 nM siRNA, day 3 post-transfection; for <G1: siCONTROL (Neg. Control) 4.09; for G2/M: siCONTROL (Neg. Control) 20.59
Procedure: as §1

[1] = system: T-47D breast cancer cells; test: Colony formation in soft agar after siRNA transfection; type: cell-based, human; details: 40 nM siRNA, relative to siCONTROL, two independent experiments
Procedure: Cells were transfected with 40 nM individual siRNAs, 40 nM siRNA pool including four individual siRNAs at 10 nM each or 40 nM non-silencing control siCONTROL using Lipofectamine 2000 Transfection Reagent (Invitrogen Corporation), mixed with culture medium containing 0.7% agar in 6-well plates and cultured at 37° C. After 2 weeks, the top layer of the culture was stained with 0.2% p-iodonitrotetrazolium violet and colonies were counted using a Sorcerer Colony Counter (Optomax).
To determine the effects of siRNA-mediated knockdown of TTK gene expression on anchorage-independent cell growth in breast cancer cells, T-47D breast cancer cell line was transfected with either the siRNA#2 or siRNA#3 TTK-targeting siRNA, the siRNA POOL containing 4 TTK-targeting siRNAs or the siCONTROL non-targeting siRNA. Following transfection colony formation in soft agar was assessed.

SKBr-3 = test: SRB cell viability after siRNA transfection; type: cell-based, human; details: 40 nM siRNA, day 5 post-transfection, normalized over siCONTROL
Procedure: (§2) Different normal breast and breast cancer cell lines were used for siRNA transfection. Cells were seeded at various concentrations, ranging from 1500 to 6000 per well according to cell growth rate, into 96 well plates. 40 nM individual siRNAs or 40 nM siRNA pool including four individual siRNAs at 10 nM each were transfected into cells using Lipofectamine-2000 24 hrs after cell seeding. Cells were then incubated at 37° C. for five days before cell viability assay were conducted.
(§3) SRB assay was performed to assess cell survival. SRB is a water-soluble dye that binds to the basic amino acids of the cellular proteins. Thus, colorimetric measurement of the bound dye provides an estimate of the total protein mass and is related to the cell number. The cells were fixed in situ by gently aspirating off the culture media and adding 50 μl ice cold 10% Tri-chloroacetic Acid (TCA) per well and incubate at 4° C. for 30-60 min. The plates were washed with tap water five times and allowed to air dry for 5 min. 50 μl of 0.4% (w/v) Sulforhodamine B solution in 1% (v/v) acetic acid was added per well and incubated for 30 min at RT for staining. Following staining, plates were washed four times with 1% acetic acid to remove any unbound dye and then allowed to air dry for 5 min. The stain was solubilized with 100 μl of 10 mM Tris pH 10.5 per well. Absorbance was read at 570 mn. The cell survival percentage after each siRNA(s) knock down was calculated over the non-silencing control siCTRL or siPOOL as well as siTOX as a transfection efficiency control.
(§4) To assess the effects of TTK knockdown on the viability of breast cancer cells, various breast cancer cell lines were transfected with each of the four TTK-targeting siRNAs individually, the pooled siRNA containing all four of the TTK-targeting siRNAs, or the siCONTROL siRNA, all at a concentration of 40 nM. At day 5 post-transfection, the viability of the cells was determined using the SRB assay described herein.

BT474 = test: SRB cell viability after siRNA transfection; type: cell-based, human; details: 40 nM siRNA, day 5 post-transfection, normalized over siCONTROL
Procedure: as §2, §3, §4

MDA-MB-231 = test: SRB cell viability after siRNA transfection; type: cell-based, human; details: 40 nM siRNA, day 5 post-transfection, normalized over siCONTROL
Procedure: as §2, §3, §4

MDA-MB-435 = test: SRB cell viability after siRNA transfection; type: cell-based, human; details: 40 nM siRNA, day 5 post-transfection, normalized over siCONTROL
Procedure: as §2, §3, §4

MDA-MB-453 = test: SRB cell viability after siRNA transfection; type: cell-based, human; details: 40 nM siRNA, day 5 post-transfection, normalized over siCONTROL
Procedure: as §2, §3, §4

MDA-MB-330 = test: SRB cell viability after siRNA transfection; type: cell-based, human; details: 40 nM siRNA, day 5 post-transfection, normalized over siCONTROL
Procedure: as §2, §3, §4

MDA-MB-468 = test: SRB cell viability after siRNA transfection; type: cell-based, human; details: 40 nM siRNA, day 5 post-transfection, normalized over siCONTROL
Procedure: as §2, §3, §4

HCC1419 = test: SRB cell viability after siRNA transfection; type: cell-based, human; details: 40 nM siRNA, day 5 post-transfection, normalized over siCONTROL
Procedure: as §2, §3, §4

T47D = test: SRB cell viability after siRNA transfection; type: cell-based, human; details: 40 nM siRNA, day 5 post-transfection, normalized over siCONTROL
Procedure: as §2, §3, §4

Hs578T = test: SRB cell viability after siRNA transfection; type: cell-based, human; details: 40 nM siRNA, day 5 post-transfection, normalized over siCONTROL
Procedure: as §2, §3, §4

CAMA-1 = test: SRB cell viability after siRNA transfection; type: cell-based, human; details: 40 nM siRNA, day 5 post-transfection, normalized over siCONTROL
Procedure: as §2, §3, §4

MCF-7 = test: SRB cell viability after siRNA transfection; type: cell-based, human; details: 40 nM siRNA, day 5 post-transfection, normalized over siCONTROL
Procedure: as §2, §3, §4

tumors = details: TNP-470 below maximum tolerated dose with cyclophophamide 170 mg/kg, every 6 days; cited from earlier work

Compound | apoptosis, indicated by increased G2/M and <G1 populations (MCF-7 (Luminal)) | <G1 (MCF-7 (Luminal)) | G2/M (MCF-7 (Luminal)) | <G1 (MDA-MB-435 (Basal)) | G2/M (MDA-MB-435 (Basal)) | <G1 (184A1 (Normal)) | G2/M (184A1 (Normal)) | <G1 (A549 (Lung)) | % survival (SKBr-3) [%] | % survival (BT474) [%] | % survival (MDA-MB-231) [%] | % survival (MDA-MB-435) [%] | % survival (MDA-MB-453) [%] | % survival (MDA-MB-330) [%] | % survival (MDA-MB-468) [%] | % survival (HCC1419) [%] | % survival (T47D) [%] | % survival (Hs578T) [%] | % survival (CAMA-1) [%] | % survival (MCF-7) [%] | further results
siRNA #3: siRNA targeting human TTK: 5′-GCACGUGACUACUUUCAAA-3′ (SEQ ID NO: 5) (listed as RNA, chemistry not given here) | caused apoptosis of the cancer cells | 5.61 | 65.23 | 2.66 | 40.08 | 3.92 | 17.49 | 11.38 | 0.49 | 0.83 | 0.23 | 0.60 | 0.18 | 0.63 | 0.27 | 0.91 | 0.74 | 0.53 | 0.52 | 0.23 | G2/M (A549 (Lung)): 24.87; <G1 (MDA-MB-468 (Basal)): 11.12; G2/M (MDA-MB-468 (Basal)): 28.41; colonies formed in soft agar (number and size) [1]: reduction in the number of colonies; colonies formed in soft agar (number and size) ([1]; listed as siRNA#3): reduction in both colony size and number
siRNA #2: siRNA targeting human TTK: 5′-GGUAUUAACUGCCCAAGAA-3′ (SEQ ID NO: 4) (listed as RNA, chemistry not given here) | caused apoptosis of the cancer cells | 12.03 | 25.18 | 4.69 | 19.89 | 5.35 | 27.75 | 6.03 | 0.34 | 0.66 | −0.09 | 0.25 | −0.04 | 0.38 | 0.00 | 0.75 | 0.44 | 1.25 | 0.30 | 0.27 | G2/M (A549 (Lung)): 20.58; <G1 (MDA-MB-468 (Basal)): 15.10; G2/M (MDA-MB-468 (Basal)): 15.72; colonies formed in soft agar (number and size) [1]: reduction in the number of colonies; colonies formed in soft agar (number and size) ([1]; listed as siRNA#2): reduction in both colony size and number
CO[C@@H]1[C@H](OC(=O)NC(=O)CCl)CC[C@]2(CO2)[C@H]1[C@@]1(C)O[C@@H]1CC=C(C)C [TNP-470] | – | – | – | – | – | – | – | – | – | – | – | – | – | – | – | – | – | – | – | – | tumor response (tumors): complete regression of the tumors
siRNA #1: siRNA targeting human TTK: 5′-GCAAUACCUUGGAUGAUUA-3′ (SEQ ID NO: 3) (listed as RNA, chemistry not given here) | – | – | – | – | – | – | – | – | 0.32 | 0.64 | 0.21 | 0.78 | 0.33 | 0.31 | 0.69 | 0.91 | 0.62 | 1.02 | 0.46 | 0.27 | –
siRNA #4: siRNA targeting human TTK: 5′-GAUAAGAUCAUCCGACUUU-3′ (SEQ ID NO: 6) (listed as RNA, chemistry not given here) | – | – | – | – | – | – | – | – | 0.91 | 0.90 | 0.58 | 0.93 | 0.56 | 0.72 | 1.46 | 1.05 | 1.19 | 1.16 | 0.77 | 0.63 | –
